Experimental data: patent US11160280B2, “Pesticial compounds” (BASF SE, priority 2017, dated 2021)

Legend:
Type in all cases: in vivo
[1] = test system: Orchid thrips (Dichromothrips corbetti); experiment: Action on orchid thrips (Dichromothrips corbetti), floral-immersion technique; details: adult thrips, mortality 72 hours after treatment, read-out: mortality in comparison with untreated controls
Experimental: Example B2: Action on Orchid thrips (Dichromothrips corbetti)
Dichromothrips corbetti adults used for bioassay were obtained from a colony maintained continuously under laboratory conditions. For testing purposes, the test compound is diluted in a 1:1 mixture of acetone:water (vol:vol), plus Kinetic® HV at a rate of 0.01% v/v.
Thrips potency of each compound was evaluated by using a floral-immersion technique. All petals of individual, intact orchid flowers were dipped into treatment solution and allowed to dry in Petri dishes. Treated petals were placed into individual re-sealable plastic along with about […]. All test arenas were held under continuous light and a temperature of about 28° C. for duration of the assay. After 3 days, the numbers of live thrips were counted on each petal. The percent mortality was recorded 72 hours after treatment.

[2] = test system: Southern Armyworm (Spodoptera eridania), 2nd Instar Larvae; experiment: Action on southern armyworm (Spodoptera eridania), 2nd instar larvae on sprayed lima bean plants; details: 96 h, 2nd instar larvae on lima bean plants, 4 days after treatment, read-out: mortality in comparison with untreated controls
Experimental: Example B7: Action on Southern Armyworm (Spodoptera eridania), 2nd Instar Larvae
The active compounds were formulated by a Tecan liquid handler in 100% cyclohexanone as a 10,000 ppm solution supplied in tubes. The 10,000 ppm solution was serially diluted in 100% cyclohexanone to make interim solutions. These served as stock solutions for which final dilutions were made by the Tecan in 50% acetone:50% water (v/v) into 10 or 20 ml glass vials. A nonionic surfactant (Kinetic®) was included in the solution at a volume of 0.01% (v/v). The vials were then inserted into an automated electrostatic sprayer equipped with an atomizing nozzle for application to plants/insects.
Lima bean plants (variety Sieva) were grown 2 plants to a pot and selected for treatment at the 1st true leaf stage. Test solutions were sprayed onto the foliage by an automated electrostatic plant sprayer equipped with an atomizing spray nozzle. The plants were dried in the sprayer fume hood and then removed from the sprayer. Each pot was placed into perforated plastic bags with a zip closure. About 10 to 11 armyworm larvae were placed into the bag and the bags zipped closed. Test plants were maintained in a growth room at about 25° C. and about 20-40% relative humidity for 4 days, avoiding direct exposure to fluorescent light (24 hour photoperiod) to prevent trapping of heat inside the bags. Mortality and reduced feeding were assessed 4 days after treatment, compared to untreated control plants.

[3] = test system: yellow fever mosquito (Aedes aegypti); experiment: whole plant or invertebrate; details: 48 h, larval mortality visually assessed after 2 days, read-out: mortality in comparison with untreated controls
Experimental: Example B1: Action on Yellow Fever Mosquito (Aedes aegypti)
For evaluating control of yellow fever mosquito (Aedes aegypti) the test unit consisted of 96-well-microtiter plates containing 200 μl of tap water per well and 5-15 freshly hatched A. aegypti larvae.
The active compounds were formulated using a solution containing 75% (v/v) water and 25% (v/v) DMSO. Different concentrations of formulated compounds or mixtures were sprayed onto the insect diet at 2.5 μl, using a custom built micro atomizer, at two replications.
After application, microtiter plates were incubated at 28+1° C., 80+5% RH for 2 days. Larval mortality was then visually assessed.

[4] = test system: Diamond Back Moth (Plutella xylostella); experiment: Action on diamond back moth (Plutella xylostella), cabbage leaf dip; details: foliar, 3rd instar larvae on dipped cabbage leaves, mortality 72 hours after treatment, read-out: mortality in comparison with untreated controls
Experimental: Example B6: Action on Diamond Back Moth (Plutella xylostella)
The active compound is dissolved at the desired concentration in a mixture of 1:1 (vol:vol) distilled water:acetone. Surfactant (Kinetic® HV) is added at a rate of 0.01% (vol/vol). The test solution is prepared at the day of use.
Leaves of cabbage were dipped in test solution and air-dried. Treated leaves were placed in petri dishes lined with moist filter paper and inoculated with ten 3rd instar larvae. Mortality was recorded 72 hours after treatment. Feeding damages were also recorded using a scale of 0-100%.

[5] = test system: tobacco budworm (Heliothis virescens); experiment: Action on tobacco budworm (Heliothis virescens), eggs on insect diet in microtiter plates; details: 120 h, egg and larval mortality after 5 days, read-out: mortality in comparison with untreated controls
Experimental: Example B5: Action on Tobacco Budworm (Heliothis virescens)
For evaluating control of tobacco budworm (Heliothis virescens) the test unit consisted of 96-well-microtiter plates containing an insect diet and 15-25 H. virescens eggs.
The compounds were formulated using a solution containing 75% v/v water and 25% v/v DMSO. Different concentrations of formulated compounds were sprayed onto the insect diet at 10 μl, using a custom built micro atomizer, at two replications.
After application, microtiter plates were incubated at about 28±1° C. and about 80±5% relative humidity for 5 days. Egg and larval mortality was then visually assessed.

[6] = test system: Silverleaf Whitefly (Bemisia argentifoli) (Adults); experiment: Action on silverleaf whitefly (Bemisia argentifoli) adults on sprayed cotton plants; details: Bemisia argentifolii, 72 h, mortality 3 days after treatment, read-out: mortality in comparison with untreated controls
Experimental: Example B4: Action on Silverleaf Whitefly (Bemisia argentifoli) (Adults)
The active compounds were formulated by a Tecan liquid handler in 100% cyclohexanone as a 10,000 ppm solution supplied in tubes. The 10,000 ppm solution was serially diluted in 100% cyclohexanone to make interim solutions. These served as stock solutions for which final dilutions were made by the Tecan in 50% acetone:50% water (v/v) into 5 or 10 ml glass vials. A nonionic surfactant (Kinetic®) was included in the solution at a volume of 0.01% (v/v). The vials were then inserted into an automated electrostatic sprayer equipped with an atomizing nozzle for application to plants/insects.
Cotton plants at the cotyledon stage (one plant per pot) were sprayed by an automated electrostatic plant sprayer equipped with an atomizing spray nozzle. The plants were dried in the sprayer fume hood and then removed from the sprayer. Each pot was pla-ced into a plastic cup and about 10 to 12 whitefly adults (approximately 3-5 days old) were introduced. The insects were collected using an aspirator and a nontoxic Tygon® tubing connected to a barrier pipette tip. The tip, containing the collected insects, was then gently inserted into the soil containing the treated plant, allowing insects to crawl out of the tip to reach the foliage for feeding. Cups were covered with a reusable screened lid. Test plants were maintained in a growth room at about 25° C. and about 20-40% relative humidity for 3 days, avoiding direct exposure to fluorescent light (24 hour photoperiod) to prevent trapping of heat inside the cup. Mortality was assessed 3 days after treatment, compared to untreated control plants.

[7] = test system: boll weevil (Anthonomus grandis); experiment: Action on boll weevil (Anthonomus grandis), eggs on insect diet in microtiter plates; details: 120 h, egg and larval mortality after 5 days, read-out: mortality in comparison with untreated controls
Experimental: Example B3: Action on Boll Weevil (Anthonomus grandis)
For evaluating control of boll weevil (Anthonomus grandis) the test unit consisted of 96-well-microtiter plates containing an insect diet and 5-10 A. grandis eggs.
The compounds were formulated using a solution containing 75% v/v water and 25% v/v DMSO. Different concentrations of formulated compounds were sprayed onto the insect diet at 5 μl, using a custom built micro atomizer, at two replications.
After application, microtiter plates were incubated at about 25±1° C. and about 75±5% relative humidity for 5 days. Egg and larval mortality was then visually assessed.

CC(C)c1ccccc1/N=C1\SCC(=O)N1/N=C/c1ccc2c(C(C)Oc3ccc(OC(F)(F)F)cc3)nn(C)c2c1 (stereo not drawn) [Example C-14, (2Z)-2-(2-isopropylphenyl)imino-3-[(E)-[1-methyl-3-[1-[4-(trifluoromethoxy)phenoxy]ethyl]indazol-6-yl]methyleneamino]thiazolidin-4-one]
≥ 75%: mortality at 500 ppm [1] | mortality at 300 ppm [2] | mortality at 800 ppm [3] | mortality at 500 ppm [4] | mortality at 800 ppm [5] | mortality at 300 ppm [6]

CC(C)c1ccccc1NC(=S)N/N=C/c1ccc2c(C(C)Oc3ccc(OC(F)(F)F)cc3)nn(C)c2c1 (stereo not drawn) [Example C-12, 1-(2-isopropylphenyl)-3-[(E)-[1-methyl-3-[1-[4-(trifluoromethoxy)phenoxy]ethyl]indazol-6-yl]methyleneamino]thiourea]
≥ 75%: mortality at 500 ppm [1] | mortality at 300 ppm [2] | mortality at 800 ppm [3] | mortality at 500 ppm [4] | mortality at 800 ppm [5] | mortality at 800 ppm [7] | mortality at 300 ppm [6]

CC(C)c1ccccc1N1C(=O)CS/C1=N\N=C\c1ccc2c(C(C)Oc3ccc(OC(F)(F)F)cc3)nn(C)c2c1 (stereo not drawn) [Example C-13, (2Z)-3-(2-isopropylphenyl)-2-[(E)-[1-methyl-3-[1-[4-(trifluoromethoxy)phenoxy]ethyl]indazol-6-yl]methylenehydrazono]thiazolidin-4-one]
≥ 75%: mortality at 500 ppm [1] | mortality at 300 ppm [2] | mortality at 800 ppm [3] | mortality at 500 ppm [4] | mortality at 800 ppm [5] | mortality at 300 ppm [6]

CO[C@@H]1[C@@H](OC)[C@H](C)O[C@@H](OC(=O)Nc2ccc3c(C(=O)Nc4ccc(OC(F)(F)F)cc4)nn(C)c3c2)[C@@H]1OC [Example C-6, [(2S,3R,4R,5S,6S)-3,4,5-trimethoxy-6-methyl-tetrahydropyran-2-yl] N-[1-methyl-3-[[4-(trifluoromethoxy)phenyl]carbamoyl]indazol-6-yl]carbamate]
≥ 75%: mortality at 500 ppm [1] | mortality at 300 ppm [2] | mortality at 800 ppm [3] | mortality at 500 ppm [4] | mortality at 800 ppm [5] | mortality at 800 ppm [7] | mortality at 300 ppm [6]

CC(C)c1ccccc1NC(=S)N/N=C/c1ccc2c(COc3ccc(OC(F)(F)F)cc3)nn(C)c2c1 [Example C-3, 1-(2-isopropylphenyl)-3-[(E)-[1-methyl-3-[[4-(trifluoromethoxy)phenoxy]methyl]indazol-6-yl]methyleneamino]thiourea]
≥ 75%: mortality at 500 ppm [1] | mortality at 300 ppm [2] | mortality at 800 ppm [3] | mortality at 500 ppm [4] | mortality at 800 ppm [5] | mortality at 800 ppm [7] | mortality at 300 ppm [6]
